Source: article PMC10847306, “The antibacterial activity and mechanism of a novel peptide MR-22 against multidrug-resistant Escherichia coli” (Frontiers in Cellular and Infection Microbiology, 2024)

Legend:
E. coli E19 = experiment: Mice peritonitis model; assay type: in vivo; details: C57BL/6J mice
Procedure: This study utilized female C57BL/6J mice aged 6-8 weeks, weight range of 18-20 g, which were obtained from SPF Biotechnology Co., Ltd (Beijing, China). The animals were housed under maintained on a standard 12 h light/12 h dark cycle. All animal experiments were conducted in accordance with the Ethical Principles in Animal Research adopted by Guizhou Medical University and were approved by the Institutional Animal Care and Use Committee.
To evaluate the in vivo efficacy of MR-22, we used a mice peritonitis model. A total of 60 mice were divided into three groups: treatment group (10 mg/kg MR-22, intraperitoneal injection), positive control group (10 mg/kg imipenem, intraperitoneal injection), and normal control group (PBS, intraperitoneal injection). Peritonitis was induced by intraperitoneal injection of 1.0 × 10^8 CFU bacterial inoculum in 0.2 mL of E. coli E19. Survival rates were recorded every 12 h for 7 days.
To study the protective effects of MR-22, 10 mice in each group were sacrificed, and peritoneal lavage fluid, blood, liver, and kidney were collected 36 h after administration. The number of colonies in peritoneal lavage fluid and blood were determined by culturing on LB agar, while the tissues were fixed in 4% paraformaldehyde and subjected to hematoxylin and eosin staining to study the morphology.

[1] = system: E. coli clinical strain E14; experiment: microbe, parasite or virus in culture; details: clinical strain E14, 18 h
Outline: (§1)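 For each clinical isolate, a final range of 1 ~ 256 μg/mL was tested in MHB at 1.0×10^6 CFU/mL, 37°C for 16~18 h. The MIC was judged by OD600 nm; the MBC was the concentration giving no colonies on LB agar.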

[2] = system: E. coli clinical strain E20; experiment: microbe, parasite or virus in culture; details: clinical strain E20, 18 h
Outline: as §1

[3] = system: E. coli clinical strain E11; experiment: microbe, parasite or virus in culture; details: clinical strain E11, 18 h
Outline: as §1

[4] = system: E. coli clinical strain E22; experiment: microbe, parasite or virus in culture; details: clinical strain E22, 18 h
Outline: as §1

[5] = system: E. coli clinical strain E02; experiment: microbe, parasite or virus in culture; details: clinical strain E02, 18 h
Outline: as §1

[6] = system: E. coli clinical strain E08; experiment: microbe, parasite or virus in culture; details: clinical strain E08, 18 h
Outline: as §1

[7] = system: E. coli clinical strain E17; experiment: microbe, parasite or virus in culture; details: clinical strain E17, 18 h
Outline: as §1

[8] = system: E. coli clinical strain E05; experiment: microbe, parasite or virus in culture; details: clinical strain E05, 18 h
Outline: as §1

[9] = system: E. coli clinical strain E07; experiment: microbe, parasite or virus in culture; details: clinical strain E07, 18 h
Outline: as §1

[10] = system: E. coli clinical strain E21; experiment: microbe, parasite or virus in culture; details: clinical strain E21, 18 h
Outline: as §1

[11] = system: E. coli clinical strain E19; experiment: microbe, parasite or virus in culture; details: clinical strain E19, 18 h
Outline: as §1

[12] = system: E. coli clinical strain E03; experiment: microbe, parasite or virus in culture; details: clinical strain E03, 18 h
Outline: as §1

[13] = system: E. coli clinical strain E12; experiment: microbe, parasite or virus in culture; details: clinical strain E12, 18 h
Outline: as §1

[14] = system: E. coli clinical strain E04; experiment: microbe, parasite or virus in culture; details: clinical strain E04, 18 h
Outline: as §1

[15] = system: E. coli clinical strain E18; experiment: microbe, parasite or virus in culture; details: clinical strain E18, 18 h
Outline: as §1

[16] = system: E. coli clinical strain E10; experiment: microbe, parasite or virus in culture; details: clinical strain E10, 18 h
Outline: as §1

[17] = system: E. coli clinical strain E16; experiment: microbe, parasite or virus in culture; details: clinical strain E16, 18 h
Outline: as §1

[18] = system: E. coli clinical strain E15; experiment: microbe, parasite or virus in culture; details: clinical strain E15, 18 h
Outline: as §1

[19] = system: E. coli clinical strain E06; experiment: microbe, parasite or virus in culture; details: clinical strain E06, 18 h
Outline: as §1

[20] = system: E. coli clinical strain E01; experiment: microbe, parasite or virus in culture; details: clinical strain E01, 18 h
Outline: as §1

[21] = system: E. coli clinical strain E13; experiment: microbe, parasite or virus in culture; details: clinical strain E13, 18 h
Outline: as §1

H-MAKRRKKAKKKAKKAKKRRRRR-NH2 [MR-22] was tested, and the “bacterial content in the peritoneal lavage fluid” value (E. coli E19; E19 peritonitis, 10 mg/kg 1 h after infection, after 36 h, ten mice per group, control group 8.73 ± 0.38) was 7.23 ± 0.36 Log10CFU/mL, the 72-h survival rate (E. coli E19; peritonitis by 1.0 × 10^8 CFU E. coli E19 i.p., 10 mg/kg intraperitoneal injection, infected group 0%) was 40% and the MBC [1] was 16 mg/L. The MIC [1] was 16 mg/L, the MBC [2] was 8 mg/L and the MIC [2] was 8 mg/L. It also gave an MBC [3] of 16 mg/L, an MIC [3] of 16 mg/L and an MBC [4] of 16 mg/L. For the same substance, the MIC [4] was 16 mg/L, the MBC [5] was 16 mg/L and the MIC [5] was 16 mg/L. The MBC [6] was 8 mg/L, the MIC [6] was 8 mg/L and the MBC [7] was 32 mg/L. It also gave an MIC [7] of 32 mg/L, an MBC [8] of 16 mg/L and an MIC [8] of 16 mg/L. It also gave an MBC [9] of 16 mg/L, an MIC [9] of 16 mg/L and an MBC [10] of 8 mg/L. For the same substance, the MIC [10] was 8 mg/L, the MBC [11] was 32 mg/L and the MIC [11] was 32 mg/L. It also gave an MBC [12] of 16 mg/L, an MIC [12] of 16 mg/L and an MBC [13] of 16 mg/L. The MIC [13] was 16 mg/L, the MBC [14] was 8 mg/L and the MIC [14] was 8 mg/L. It also gave an MBC [15] of 8 mg/L, an MIC [15] of 8 mg/L and an MBC [16] of 16 mg/L. It also gave an MIC [16] of 16 mg/L, an MBC [17] of 16 mg/L and an MIC [17] of 16 mg/L. For the same substance, the MBC [18] was 4 mg/L, the MIC [18] was 4 mg/L and the MBC [19] was 8 mg/L. The MIC [19] was 8 mg/L, the MBC [20] was 16 mg/L and the MIC [20] was 16 mg/L. For the same substance, the MBC [21] was 16 mg/L and the MIC [21] was 16 mg/L.
